Test results: US20220411388A1, “SUBSTITUTED IMIDAZOLE CARBOXAMIDES AND THEIR USE IN THE TREATMENT OF MEDICAL DISORDERS” (Bial - R&D Investments, S.A., priority 2019, published 2022)
In brackets after ≈: the same amount, converted by molar mass.

What was measured:
acid ceramidase (hACR) = biological target: T1, acid ceramidase (hACR) (Homo sapiens, UniProt Q13510); experiment: Acid ceramidase inhibition, biochemical fluorescent assay with cell lysates overexpressing acid ceramidase (substrate Rbm14-12); details: cell lysate, 1 hr preincubation at RT, pH 4.5, Rbm14-12 6.3 μM; read-out: IC50 hACR
T1 construct: expressed in transfected cells
T1 sequence (Q13510 22-395): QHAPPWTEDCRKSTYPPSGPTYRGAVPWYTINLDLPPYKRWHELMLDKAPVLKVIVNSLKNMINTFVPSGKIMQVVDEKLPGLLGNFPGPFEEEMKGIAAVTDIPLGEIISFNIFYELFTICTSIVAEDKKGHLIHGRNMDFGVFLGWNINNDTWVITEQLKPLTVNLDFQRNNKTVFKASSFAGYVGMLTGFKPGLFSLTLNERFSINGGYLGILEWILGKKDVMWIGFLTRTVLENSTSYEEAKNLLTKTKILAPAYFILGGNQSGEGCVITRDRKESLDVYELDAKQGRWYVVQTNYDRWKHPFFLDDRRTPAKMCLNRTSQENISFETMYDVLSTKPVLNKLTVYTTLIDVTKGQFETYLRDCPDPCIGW
In short: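 Enzyme source was lysate from cells overexpressing acid ceramidase, 10 µg protein per reaction. Compounds were preincubated 1 h at RT in 25 mM NaAc, 100 mM NaCl, pH 4.5.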

[1] = Compound solubility in water; assay type: physicochemical

Row | SMILES | IC50 (acid ceramidase (hACR)) | solubility [1]
1 | COc1nc(-c2coc(C(C)(C)C)n2)cn1C(=O)NCCC1CC1 [Example 103, 4-(2-(tert-Butyl)oxazol-4-yl)-N-(2-cyclopropylethyl)-2-methoxy-1H-imidazole-1-carboxamide] | > 1000 nM | 6 µg/mL (≈ 18.1 µM)
2 | COc1nc(C2(C)CCOCC2)cn1C(=O)NCCC1CC1 [Example 104, N-(2-Cyclopropylethyl)-2-methoxy-4-(4-methyltetrahydro-2H-pyran-4-yl)-1H-imidazole-1-carboxamide] | 200 to 1000 nM | 28 µg/mL (≈ 91.1 µM)
3 | COc1nc(C2CCCC2)cn1C(=O)NCCCOc1ccccc1 [Example 105, 4-Cyclopentyl-2-methoxy-N-(3-phenoxypropyl)-1H-imidazole-1-carboxamide] | < 200 nM | 14 µg/mL (≈ 40.8 µM)
4 | COc1nc(C2CCCC2)cn1C(=O)NC1CCCCC1 [Example 106, N-Cyclohexyl-4-cyclopentyl-2-methoxy-1H-imidazole-1-carboxamide] | > 1000 nM | 6 µg/mL (≈ 20.6 µM)
5 | CC(C)CNC(=O)n1cc(C(C)(C)C)nc1OC(C)C [Example 107, 4-(tert-Butyl)-N-iso-butyl-2-iso-propoxy-1H-imidazole-1-carboxamide] | 200 to 1000 nM | 7 µg/mL (≈ 24.9 µM)
6 | COc1nc(C2CCOC2)cn1C(=O)NC1CCCCC1 (stereo not shown) [Example 108, N-Cyclohexyl-2-methoxy-4-(tetrahydrofuran-3-yl)-1H-imidazole-1-carboxamide] | > 1000 nM | 32 µg/mL (≈ 109 µM)
7 | COc1nc(C2CCCCC2)cn1C(=O)NCCC(C)C [Example 109, 4-Cyclohexyl-N-iso-pentyl-2-methoxy-1H-imidazole-1-carboxamide] | 200 to 1000 nM | 13 µg/mL (≈ 44.3 µM)
8 | COc1nc(C2CCOCC2)cn1C(=O)NCCC(C)C [Example 110, N-iso-Pentyl-2-methoxy-4-(tetrahydro-2H-pyran-4-yl)-1H-imidazole-1-carboxamide] | 200 to 1000 nM | 29 µg/mL (≈ 98.2 µM)
9 | COc1nc(C2CCC(F)(F)CC2)cn1C(=O)NCCC(C)C [Example 111, 4-(4,4-Difluorocyclohexyl)-N-iso-pentyl-2-methoxy-1H-imidazole-1-carboxamide] | 200 to 1000 nM | 15 µg/mL (≈ 45.5 µM)
10 | COc1nc(C(C)(C)C)cn1C(=O)NC1CCC(F)(F)CC1 [Example 112, 4-(tert-Butyl)-N-(4,4-difluorocyclohexyl)-2-methoxy-1H-imidazole-1-carboxamide] | 200 to 1000 nM | 12 µg/mL (≈ 38.1 µM)
11 | COc1nc(C(C)(C)C)cn1C(=O)NC1CC1 [Example 113, 4-(tert-Butyl)-N-cyclopropyl-2-methoxy-1H-imidazole-1-carboxamide] | 200 to 1000 nM | 24 µg/mL (≈ 101 µM)
12 | COc1nc(C(C)(C)C)cn1C(=O)NC1CCOCC1 [Example 114, 4-(tert-Butyl)-2-methoxy-N-(tetrahydro-2H-pyran-4-yl)-1H-imidazole-1-carboxamide] | 200 to 1000 nM | 29 µg/mL (≈ 103 µM)
13 | CC(C)CCNC(=O)n1cc(C(C)(C)C)nc1Oc1ccccc1F [Example 115, 4-tert-Butyl-2-(2-fluorophenoxy)-N-iso-pentyl-1H-imidazole-1-carboxamide] | 200 to 1000 nM | 0.4 µg/mL (≈ 1.15 µM)
14 | CC(C)CCNC(=O)n1cc(C(C)(C)C)nc1Oc1ccc(F)cc1 [Example 116, 4-tert-Butyl-2-(4-fluorophenoxy)-N-iso-pentyl-1H-imidazole-1-carboxamide] | < 200 nM | 1 µg/mL (≈ 2.88 µM)
15 | COCCOc1nc(C(C)(C)C)cn1C(=O)NCCC(C)C [Example 117, 4-(tert-Butyl)-N-iso-pentyl-2-(2-methoxyethoxy)-1H-imidazole-1-carboxamide] | 200 to 1000 nM | 10 µg/mL (≈ 32.1 µM)
16 | COc1nc(C2CCOC2)cn1C(=O)NCCCc1ccccc1 (stereo not shown) [Example 118, 2-Methoxy-N-(3-phenylpropyl)-4-(tetrahydrofuran-3-yl)-1H-imidazole-1-carboxamide] | < 200 nM | 17 µg/mL (≈ 51.6 µM)
17 | COc1nc(C)cn1C(=O)NCCC(C)C [Example 119, N-iso-Pentyl-2-methoxy-4-methyl-1H-imidazole-1-carboxamide] | 200 to 1000 nM | 14 µg/mL (≈ 62.1 µM)
18 | COc1nccn1C(=O)NC1CCCCC1 [Example 120, N-Cyclohexyl-2-methoxy-1H-imidazole-1-carboxamide] | > 1000 nM | 14 µg/mL (≈ 62.7 µM)
19 | CCOc1nccn1C(=O)NCCC(C)C [Example 121, 2-Ethoxy-N-iso-pentyl-1H-imidazole-1-carboxamide] | 200 to 1000 nM | 23 µg/mL (≈ 102 µM)
20 | CC(C)CCNC(=O)n1ccnc1OC(C)C [Example 122, N-iso-Pentyl-2-iso-propoxy-1H-imidazole-1-carboxamide] | 200 to 1000 nM | 21 µg/mL (≈ 87.7 µM)
21 | COc1nccn1C(=O)NCCCC(C)C [Example 123, 2-Methoxy-N-(4-methylpentyl)-1H-imidazole-1-carboxamide] | < 200 nM | 16 µg/mL (≈ 71 µM)

Row | SMILES | IC50 (acid ceramidase (hACR)) | solubility [1]
22 | COc1nccn1C(=O)NCCCc1ccccc1 [Example 124, 2-methoxy-N-(3-phenylpropyl)-1H-imidazole-1-carboxamide] | < 200 nM | 20 µg/mL (≈ 77.1 µM)
23 | COc1nc(C2CC2)cn1C(=O)NC1CC1 [Example 125, N,4-Dicyclopropyl-2-methoxy-1H-imidazole-1-carboxamide] | > 1000 nM | 14 µg/mL (≈ 63.3 µM)
24 | COc1nc(C2CCCC2)cn1C(=O)NC1CC1 [Example 126, 4-Cyclopentyl-N-cyclopropyl-2-methoxy-1H-imidazole-1-carboxamide] | 200 to 1000 nM | 13 µg/mL (≈ 52.1 µM)
25 | COc1nc(C2CC2)cn1C(=O)NCCC(C)C [Example 127, 4-Cyclopropyl-N-iso-pentyl-2-methoxy-1H-imidazole-1-carboxamide] | > 1000 nM | 23 µg/mL (≈ 91.5 µM)
26 | COc1nc(C2CCOC2)cn1C(=O)NC1CC1 (stereo not shown) [Example 128, N-Cyclopropyl-2-methoxy-4-(tetrahydrofuran-3-yl)-1H-imidazole-1-carboxamide] | > 1000 nM | 15 µg/mL (≈ 59.7 µM)
27 | CCC1(NC(=O)n2cc(C(C)(C)C)nc2OC)CC1 [Example 129, 4-(tert-Butyl)-N-(1-ethylcyclopropyl)-2-methoxy-1H-imidazole-1-carboxamide] | > 1000 nM | 16 µg/mL (≈ 60.3 µM)
28 | COc1nc(C2CC2)cn1C(=O)NCCc1ccccc1 [Example 130, 4-Cyclopropyl-2-methoxy-N-phenethyl-1H-imidazole-1-carboxamide] | 200 to 1000 nM | 12 µg/mL (≈ 42.1 µM)
29 | COc1nc(C2CCOC2)cn1C(=O)NCCCCC1CC1 (stereo not shown) [Example 131, N-(4-Cyclopropylbutyl)-2-methoxy-4-(tetrahydrofuran-3-yl)-1H-imidazole-1-carboxamide] | 200 to 1000 nM | 23 µg/mL (≈ 74.8 µM)
30 | CSc1nccn1C(=O)NCCC(C)C [Example 132, N-iso-Pentyl-2-(methylthio)-1H-imidazole-1-carboxamide] | < 200 nM | 10 µg/mL (≈ 44 µM)
31 | COc1nc(C(C)(C)C)cn1C(=O)NCCCCn1ccc(C(C)(C)C)n1 [Example 134, 4-(tert-Butyl)-N-(4-(3-(tert-butyl)-1H-pyrazol-1-yl)butyl)-2-methoxy-1H-imidazole-1-carboxamide] | < 200 nM | 18 µg/mL (≈ 47.9 µM)
32 | COc1nccn1C(=O)NCCc1ccccc1 [Example 135, 2-Methoxy-N-phenethyl-1H-imidazole-1-carboxamide] | < 200 nM | 26 µg/mL (≈ 106 µM)
33 | COc1nccn1C(=O)NCCCCc1ccccc1 [Example 136, 2-Methoxy-N-(4-phenylbutyl)-1H-imidazole-1-carboxamide] | < 200 nM | 22 µg/mL (≈ 80.5 µM)
34 | COc1nccn1C(=O)NCCCC1(C(F)(F)F)CC1 [Example 137, 2-Methoxy-N-(3-(1-(trifluoromethyl)cyclopropyl)propyl)-1H-imidazole-1-carboxamide] | < 200 nM | 29 µg/mL (≈ 99.6 µM)
35 | COc1nccn1C(=O)NCCCCC1(C(F)(F)F)CC1 [Example 138, 2-Methoxy-N-(4-(1-(trifluoromethyl)cyclopropyl)butyl)-1H-imidazole-1-carboxamide] | < 200 nM | 27 µg/mL (≈ 88.4 µM)
36 | COc1nc(C)cn1C(=O)NCCCC(F)(F)F [Example 139, 2-Methoxy-4-methyl-N-(4,4,4-trifluorobutyl)-1H-imidazole-1-carboxamide] | 200 to 1000 nM | 32 µg/mL (≈ 121 µM)
37 | COc1nc(-c2ccccc2)cn1C(=O)NC1CC1 [Example 140, N-Cyclopropyl-2-methoxy-4-phenyl-1H-imidazole-1-carboxamide] | > 1000 nM | 27 µg/mL (≈ 105 µM)
38 | COc1nc(C)cn1C(=O)NCCCc1ccccc1 [Example 141, 2-Methoxy-4-methyl-N-(3-phenylpropyl)-1H-imidazole-1-carboxamide] | < 200 nM | 24 µg/mL (≈ 87.8 µM)
39 | COc1nc(C)cn1C(=O)NCCCC(C)C [Example 142, 2-Methoxy-4-methyl-N-(4-methylpentyl)-1H-imidazole-1-carboxamide] | 200 to 1000 nM | 22 µg/mL (≈ 91.9 µM)
40 | COc1nc(C)cn1C(=O)NCCc1ccccc1 [Example 143, 2-Methoxy-4-methyl-N-phenethyl-1H-imidazole-1-carboxamide] | < 200 nM | 27 µg/mL (≈ 104 µM)
41 | COc1nc(C)cn1C(=O)NCCCOc1ccccc1 [Example 144, 2-Methoxy-4-methyl-N-(3-phenoxypropyl)-1H-imidazole-1-carboxamide] | < 200 nM | 26 µg/mL (≈ 89.9 µM)
